The target of one experiment is T1, hGAT3 (Homo sapiens, UniProt P48066).
T1 construct: expressed in transfected cells
T1 sequence (P48066 1-632): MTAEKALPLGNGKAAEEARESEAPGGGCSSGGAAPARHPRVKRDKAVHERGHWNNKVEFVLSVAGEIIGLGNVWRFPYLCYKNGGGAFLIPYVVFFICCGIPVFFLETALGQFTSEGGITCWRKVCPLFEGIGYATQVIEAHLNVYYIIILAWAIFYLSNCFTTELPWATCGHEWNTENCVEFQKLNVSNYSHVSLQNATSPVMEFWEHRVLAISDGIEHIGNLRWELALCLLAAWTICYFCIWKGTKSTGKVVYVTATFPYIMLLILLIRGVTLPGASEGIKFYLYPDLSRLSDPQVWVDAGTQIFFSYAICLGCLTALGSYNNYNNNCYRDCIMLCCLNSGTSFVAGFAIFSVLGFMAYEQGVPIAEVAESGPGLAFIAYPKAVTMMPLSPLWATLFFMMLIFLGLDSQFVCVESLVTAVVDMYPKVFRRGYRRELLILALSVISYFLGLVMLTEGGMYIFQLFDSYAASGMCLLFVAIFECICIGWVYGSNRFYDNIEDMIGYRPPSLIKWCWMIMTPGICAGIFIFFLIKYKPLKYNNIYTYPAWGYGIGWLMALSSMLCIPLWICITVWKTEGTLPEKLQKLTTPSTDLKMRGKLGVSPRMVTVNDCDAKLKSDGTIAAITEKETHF
Nature of the experiment: [3H]GABA uptake inhibition at hGAT3 stably expressed in CHO Flp-In cells. The experiment is classed as cell-based. The settings on record: 30 nM [3H]GABA, 3 min, CHO Flp-In cells stably expressing hGAT3; read-out: IC50 hGAT3. Here is the method:
(§1) CHO Flp-In and tsA201 cells were cultured at 37 °C in a humidified atmosphere of […] and 5% CO2. As previously described[38],[63], CHO Flp-In cells stably expressing the hGATs were cultured in Ham’s F12 Nutrient Mix supplemented with 10% FBS, 1% P/S and plasmocin (5 µg/mL) under the selection pressure of hygromycin B (200 µg/mL). DMEM with GlutaMAX-I supplemented with 10% FBS and 1% P/S was used as growth medium for the tsA201 cells, which were transfected with DNA constructs using PolyFect according to the manufacturer’s specifications (Qiagen, West Sussex, UK), but with half of the recommended reagent volumes.
(§2) Uptake assays were performed in PDL-coated white 96-well polystyrene cell culture microplates (PerkinElmer, Boston, MA, USA) as previously described[38],[63]. […] Assay buffer was HBSS supplemented with 20 mM HEPES, 1 mM CaCl2 and 1 mM MgCl2, pH 7.4. […] After termination, scintillation liquid (MicroScint-20, PerkinElmer) was added and the radioactivity measured in a TopCount NXT Microplate Scintillation Counter (PerkinElmer).
(§3) Data analysis and statistical evaluation were performed in GraphPad Prism 7.02 (GraphPad Software, San Diego, CA, USA). Concentration-uptake inhibition curves, generated from the radioligand-based uptake assays, were fitted by non-linear regression, using the equation for sigmoidal concentration–response with variable slope: Y = Bottom + (Top–Bottom)/(1 + 10^((logIC50 − X) × HillSlope)), where Y is the response, X is the logarithm of the concentration, Top and Bottom are the plateaus in same units as Y, logIC50 is the concentration giving a response halfway between Bottom and Top, and the HillSlope is the steepness of the curve. For the substrate concentration–response curves generated from the FMP assay, the same equation was used but with logEC50 instead for logIC50. Unless otherwise stated, data are presented as means ± S.E.M. of at least three independent pooled experiments performed in triplicates.

Another experiment concerns the target T2, hGAT2 (Homo sapiens, UniProt Q9NSD5).
T2 construct: expressed in transfected cells
T2 sequence (Q9NSD5 1-602): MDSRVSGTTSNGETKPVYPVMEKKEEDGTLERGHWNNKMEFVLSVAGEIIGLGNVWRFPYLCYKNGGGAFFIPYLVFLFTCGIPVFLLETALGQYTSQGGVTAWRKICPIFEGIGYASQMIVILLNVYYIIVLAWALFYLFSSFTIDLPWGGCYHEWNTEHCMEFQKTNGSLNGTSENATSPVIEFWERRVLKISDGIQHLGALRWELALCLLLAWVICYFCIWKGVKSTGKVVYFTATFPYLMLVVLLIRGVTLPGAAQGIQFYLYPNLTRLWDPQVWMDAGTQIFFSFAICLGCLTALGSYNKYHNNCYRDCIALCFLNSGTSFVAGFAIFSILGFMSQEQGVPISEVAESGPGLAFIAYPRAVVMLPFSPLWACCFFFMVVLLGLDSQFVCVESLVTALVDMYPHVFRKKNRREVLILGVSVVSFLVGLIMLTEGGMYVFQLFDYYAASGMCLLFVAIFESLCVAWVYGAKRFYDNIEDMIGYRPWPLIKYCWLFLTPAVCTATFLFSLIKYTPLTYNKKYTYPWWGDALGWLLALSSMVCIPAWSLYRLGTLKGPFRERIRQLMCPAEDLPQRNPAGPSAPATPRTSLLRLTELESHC
Nature of the experiment: [3H]GABA uptake inhibition at hGAT2 stably expressed in CHO Flp-In cells. The experiment is classed as cell-based. Conditions: 30 nM [3H]GABA, 3 min, CHO Flp-In cells stably expressing hGAT2; read-out: IC50 hGAT2. Here is the method:
as §1, §2, §3

The target of experiment [1] is T3, hBGT1 (Homo sapiens, UniProt P48065).
T3 construct: expressed in transfected cells
T3 sequence (P48065 1-614): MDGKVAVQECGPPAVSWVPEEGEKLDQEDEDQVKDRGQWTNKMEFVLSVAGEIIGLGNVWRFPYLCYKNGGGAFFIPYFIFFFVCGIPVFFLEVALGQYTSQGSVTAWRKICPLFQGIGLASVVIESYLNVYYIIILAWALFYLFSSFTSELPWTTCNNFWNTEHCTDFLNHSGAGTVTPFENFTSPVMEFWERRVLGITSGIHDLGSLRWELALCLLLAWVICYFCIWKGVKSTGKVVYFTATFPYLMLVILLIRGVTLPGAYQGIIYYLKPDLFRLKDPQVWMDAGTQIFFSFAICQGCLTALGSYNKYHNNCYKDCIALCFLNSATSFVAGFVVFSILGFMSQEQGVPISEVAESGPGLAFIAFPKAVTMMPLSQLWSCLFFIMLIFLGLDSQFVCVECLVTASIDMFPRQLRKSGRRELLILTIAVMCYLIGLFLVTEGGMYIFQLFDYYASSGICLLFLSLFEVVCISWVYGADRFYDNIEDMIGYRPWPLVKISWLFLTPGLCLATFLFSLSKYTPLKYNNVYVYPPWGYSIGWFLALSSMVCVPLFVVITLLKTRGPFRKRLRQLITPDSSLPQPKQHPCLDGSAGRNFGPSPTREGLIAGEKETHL
The experiment is classed as cell-based. Conditions: for IC50: 30 nM [3H]GABA, 3 min, CHO Flp-In cells stably expressing hBGT1; for subtype-selectivity for hBGT1 over the other hGATs: estimated from [3H]GABA uptake IC50 values; for subtype-selectivity for hBGT1 over the other hGATs / decrease of hBGT1 inhibitory potency compared to ATPCA: CHO Flp-In cells; for decrease of hBGT1 inhibitory potency compared to ATPCA: [3H]GABA uptake. As for the experimental part:
as §1, §2, §3

In experiment [2] the target is T3, hBGT1. The settings on record: [3H]GABA uptake, recombinant hBGT1; adapted from Al-Khawaja et al.; cited from earlier work.
[3] abbreviates: read-out: pIC50 ± S.E.M. hBGT1 (converted).

Values joined by “and” are separate entries in the source; they are usually repeats but may differ in a detail not shown here. Equal entries are not always repeated. Where two headings read alike, the source gives them in different places. Some results are limits rather than exact numbers.

For the compound `C[C@@H]1N=C(N)NC[C@@H]1C(=O)O` (single isomer, unassigned) [l-15a], the IC50 is more than 1000 µM on hGAT3, more than 1000 µM at hGAT2, less than 100 µM on hBGT1 [1] (read-out: IC50 hBGT1) and 33.9 µM at hBGT1 [1] (setting [3]). The “subtype-selectivity for hBGT1 over the other hGATs” value (from here on “subtype-selectivity for hBGT1”) on hBGT1 [1] is not below 29 times.
Take `CCN1CC(C(=O)O)CN=C1N.Cl` (stereo not shown) [compound 3]: the values for the IC50 on hGAT3, on hGAT2 and on hBGT1 [1] (read-out: IC50 hBGT1) were more than 1000 µM, more than 1000 µM and 86 µM, respectively. The “decrease of hBGT1 inhibitory potency compared to ATPCA” value (“decrease of hBGT1 inhibitory potency” below) at hBGT1 [1] is 20–65 fold and 34 fold. Further, the “subtype-selectivity for hBGT1” value at hBGT1 [1] is given as “at least 12 times”.
As for `Cl.NC1=NCC(C(=O)O)CN1Cc1ccccc1` (stereo not shown) [compound 4], the IC50 at hGAT3 stood at 117 µM; on hGAT2 it was 105 µM; at hBGT1 [1] (read-out: IC50 hBGT1), 163 µM. For the same compound, at hBGT1 [1], the “decrease of hBGT1 inhibitory potency” value was 20–65 fold.
`NC1=NC=C(C(=O)O)CN1.O=C(O)C(F)(F)F` [compound 11]: the IC50 on hGAT3 was more than 1000 µM; on hGAT2, more than 1000 µM; at hBGT1 [1] (read-out: IC50 hBGT1), 48 µM; on hBGT1 [1] (setting [3]), 46.8 µM. For the same compound, the “decrease of hBGT1 inhibitory potency” value on hBGT1 [1] is given as 19 fold. In addition, the “subtype-selectivity for hBGT1” value on hBGT1 [1] is not below 21 times.
Turning to `NC1=NCC(C(=O)O)CC1` (stereo not shown) [compound 2, 6-amino-2,3,4,5-tetrahydropyridine-3-carboxylic acid, reference compound], the IC50 on hGAT3 is more than 1000 µM; at hGAT2, more than 1000 µM; on hBGT1 [1] (read-out: IC50 hBGT1) it was less than 100 µM; at hBGT1 [1] (setting [3]), 12.9 µM; at hBGT1 [2], 9.8 µM. The “decrease of hBGT1 inhibitory potency” value at hBGT1 [1] is “fivefold”.
For the compound `NC1=NCC(C(=O)O)CN1` (stereo not shown) [ATPCA, 2-amino-1,4,5,6-tetrahydropyrimidine-5-carboxylic acid, reference compound], on hBGT1 [2], the IC50 was 2.5 µM and the “pIC50 ± S.E.M. hBGT1” value is listed as 5.60 ± 0.11.
